From patent US4499083A, “3-O-Demethyl derivatives of the istamycin B series of compounds” (Zaidan Hojin Biseibutsu Kagaku Kenkyu Kai, priority 1980, dated 1985)

How the values were obtained:
[1] = system: Gram-negative and Gram-positive bacteria; assay: Antibacterial activity, overall statement; assay type: cell-based
Description: The antibacterial spectra of 3-O-demethylistamycin B.sesquicarbonate and 3-O-demethyl-2"-N-formimidoylistamycin B.disulphate.trihydrate are shown in Table 2, along with that of istamycin B for comparison purposes.
*^1 Determined according to a standard serial dilution method on
nutrient agar plates which were incubated at 37° C. for 17 hours.

in vivo = settings: mouse, iv
mice = assay: Acute toxicity by intravenous injection in mice
Pseudomonas aeruginosa = settings: relative to istamycin A; earlier filings; cited from earlier work

Row | Molecule | antibacterial activity (in words) [1] | MTD (in vivo) [mg/kg] | toxicity (in words) (mice) | antibacterial activity against Pseudomonas aeruginosa compared with istamycin A (Pseudomonas aeruginosa)
1 | CNCC1CCC(N)C(OC2C(N)CC(O)C(NC)C2O)O1 (stereo not shown) [3-O-Demethylistamycin BO] | poor antibacterial activity | 160 | low toxicity | –
2 | di-N^6',O^3 -demethylistamycin A | – | – | – | significantly higher than that of istamycin A
